Read-outs that look alike come from different tables or passages of the source.
Tests used:
[1] = format: physicochemical; details: for % assay/degs / Total degs / pH: T = 0
Method: For each condition, samples were staged at ambient and refrigerated conditions. Samples were analyzed for % assay/degs, appearance, reconstitution time, pH, and compared to T=0. The structures of the key impurities/metabolites are shown below.

[2] = In use testing of reconstituted solutions in IV bags and IV tubings; format: physicochemical
From the text: The IV bags and IV tubings were sampled over time and tested for % assay/degradation.

in vivo [3] = experiment: in vivo; set-up: species or system African Green Monkeys; details: monkey, iv, 10 mg/kg
in vivo [4] = details: both, monkey, inhaled or intranasal
Method: The average deposited dose was calculated at 0.168 mg/kg and 0.536 mg/kg, respectively. Plasma, peripheral blood mononuclear cells (PBMCs), trachea, bronchi, lung lobe, liver, kidney, nasal mucosa and nasopharyngeal mucosa samples were collected in this study.

CCC(CC)COC(=O)[C@H](C)N[P@](=O)(OC[C@H]1O[C@@](C#N)(c2ccc3c(N)ncnn23)[C@H](O)[C@@H]1O)Oc1ccccc1 [Formula Ia, (S)-2-ethylbutyl 2-(((S)-(((2R,3S,4R,5R)-5-(4-aminopyrrolo[2,1-f][1,2,4]triazin-7-yl)-5-cyano-3,4-dihydroxytetrahydrofuran-2-yl)methoxy)(phenoxy)phosphoryl)amino)propanoate]
pH, difference from T = 0 ([1]; pH 3.5, Ambient, 2 h): 0.0
% assay/degs, difference from T = 0 ([1]; pH 3.5, Ambient, 8 h): 0.2%
Total degs, difference from T = 0 ([1]; pH 3.5, Ambient, 8 h): 0.0%
pH, difference from T = 0 ([1]; pH 3.5, Ambient, 8 h): 0.0
% assay/degs, difference from T = 0 ([1]; pH 3.5, Ambient, 24 h): 0.6%
Total degs, difference from T = 0 ([1]; pH 3.5, Ambient, 24 h): 0.0%
pH, difference from T = 0 ([1]; pH 3.5, Ambient, 24 h): 0.0
% assay/degs, difference from T = 0 ([1]; pH 3.5, Ambient, 48 h): 0.3%
Total degs, difference from T = 0 ([1]; pH 3.5, Ambient, 48 h): 0.1%
pH, difference from T = 0 ([1]; pH 3.5, Ambient, 48 h): 0.0
% assay/degs, difference from T = 0 ([1]; pH 3.5, Ambient, 72 h): 0.2%
Total degs, difference from T = 0 ([1]; pH 3.5, Ambient, 72 h): 0.1%
pH, difference from T = 0 ([1]; pH 3.5, Ambient, 72 h): −0.1
% assay/degs, difference from T = 0 ([1]; pH 3.5, Ambient, 96 h): 0.0%
Total degs, difference from T = 0 ([1]; pH 3.5, Ambient, 96 h): 0.1%
pH, difference from T = 0 ([1]; pH 3.5, Ambient, 96 h): 0.0
% assay/degs, difference from T = 0 ([1]; pH 3.5, Ambient, 168 h): 0.2%
Total degs, difference from T = 0 ([1]; pH 3.5, Ambient, 168 h): 0.2%
pH, difference from T = 0 ([1]; pH 3.5, Ambient, 168 h): 0.0
% assay/degs ([1]; pH 3.5): 99.1%
Total degs ([1]; pH 3.5): 0.1%
pH ([1]; pH 3.5): 3.5
% assay/degs, difference from T = 0 ([1]; pH 3.8, 2-8° C., 7.2 h): −0.2%
Total degs, difference from T = 0 ([1]; pH 3.8, 2-8° C., 7.2 h): 0.0%
pH, difference from T = 0 ([1]; pH 3.8, 2-8° C., 7.2 h): −0.1
% assay/degs, difference from T = 0 ([1]; pH 3.8, 2-8° C., 24 h): 0.3%
Total degs, difference from T = 0 ([1]; pH 3.8, 2-8° C., 24 h): 0.0%
pH, difference from T = 0 ([1]; pH 3.8, 2-8° C., 24 h): 0.0
% assay/degs, difference from T = 0 ([1]; pH 3.8, 2-8° C., 96 h): 0.1%
Total degs, difference from T = 0 ([1]; pH 3.8, 2-8° C., 96 h): 0.0%
pH, difference from T = 0 ([1]; pH 3.8, 2-8° C., 96 h): −0.1
% assay/degs, difference from T = 0 ([1]; pH 3.8, 2-8° C., 168 h): 0.1%
Total degs, difference from T = 0 ([1]; pH 3.8, 2-8° C., 168 h): 0.0%
pH, difference from T = 0 ([1]; pH 3.8, 2-8° C., 168 h): −0.1
% assay/degs, difference from T = 0 ([1]; pH 3.8, Ambient, 7.2 h): 0.0%
Total degs, difference from T = 0 ([1]; pH 3.8, Ambient, 7.2 h): 0.0%
pH, difference from T = 0 ([1]; pH 3.8, Ambient, 7.2 h): 0.0
% assay/degs, difference from T = 0 ([1]; pH 3.8, Ambient, 24 h): 0.4%
Total degs, difference from T = 0 ([1]; pH 3.8, Ambient, 24 h): 0.0%
pH, difference from T = 0 ([1]; pH 3.8, Ambient, 24 h): 0.0
% assay/degs, difference from T = 0 ([1]; pH 3.8, Ambient, 96 h): 0.0%
Total degs, difference from T = 0 ([1]; pH 3.8, Ambient, 96 h): 0.1%
pH, difference from T = 0 ([1]; pH 3.8, Ambient, 96 h): −0.1
% assay/degs, difference from T = 0 ([1]; pH 3.8, Ambient, 168 h): 0.0%
Total degs, difference from T = 0 ([1]; pH 3.8, Ambient, 168 h): 0.1%
pH, difference from T = 0 ([1]; pH 3.8, Ambient, 168 h): −0.1
% assay/degs ([1]; pH 3.8): 98.7%
Total degs ([1]; pH 3.8): 0.1%
pH ([1]; pH 3.8): 3.8
% assay/degs, difference from T = 0 ([1]; pH 4.0, 2-8° C., 7.2 h): 0.0%
Total degs, difference from T = 0 ([1]; pH 4.0, 2-8° C., 7.2 h): 0.0%
pH, difference from T = 0 ([1]; pH 4.0, 2-8° C., 7.2 h): 0.0
% assay/degs, difference from T = 0 ([1]; pH 4.0, 2-8° C., 24 h): 0.3%
Total degs, difference from T = 0 ([1]; pH 4.0, 2-8° C., 24 h): 0.0%
pH, difference from T = 0 ([1]; pH 4.0, 2-8° C., 24 h): 0.0
% assay/degs, difference from T = 0 ([1]; pH 4.0, 2-8° C., 96 h): 0.2%
Total degs, difference from T = 0 ([1]; pH 4.0, 2-8° C., 96 h): 0.0%
pH, difference from T = 0 ([1]; pH 4.0, 2-8° C., 96 h): 0.0
% assay/degs, difference from T = 0 ([1]; pH 4.0, 2-8° C., 168 h): 0.6%
Total degs, difference from T = 0 ([1]; pH 4.0, 2-8° C., 168 h): 0.0%
pH, difference from T = 0 ([1]; pH 4.0, 2-8° C., 168 h): −0.1
% assay/degs, difference from T = 0 ([1]; pH 4.0, Ambient, 7.2 h): 0.3%
Total degs, difference from T = 0 ([1]; pH 4.0, Ambient, 7.2 h): 0.0%
pH, difference from T = 0 ([1]; pH 4.0, Ambient, 7.2 h): 0.0
% assay/degs, difference from T = 0 ([1]; pH 4.0, Ambient, 24 h): 0.3%
Total degs, difference from T = 0 ([1]; pH 4.0, Ambient, 24 h): 0.0%
pH, difference from T = 0 ([1]; pH 4.0, Ambient, 24 h): 0.0
% assay/degs, difference from T = 0 ([1]; pH 4.0, Ambient, 96 h): 0.0%
Total degs, difference from T = 0 ([1]; pH 4.0, Ambient, 96 h): 0.1%
pH, difference from T = 0 ([1]; pH 4.0, Ambient, 96 h): 0.0
% assay/degs, difference from T = 0 ([1]; pH 4.0, Ambient, 168 h): −0.2%
Total degs, difference from T = 0 ([1]; pH 4.0, Ambient, 168 h): 0.1%
pH, difference from T = 0 ([1]; pH 4.0, Ambient, 168 h): −0.1
% assay/degs ([1]; pH 4.0): 98.6%
Total degs ([1]; pH 4.0): 0.1%
pH ([1]; pH 4.0): 4.0
Total degradation ([2]; 0 h, 0.3 mg/mL): 0.2 % w/w
Total degradation ([2]; 0 h, 2 mg/mL): 0.2 % w/w
Total degradation ([2]; 4 h, 0.3 mg/mL): 0.2 % w/w
Total degradation ([2]; 4 h, 2 mg/mL): 0.2 % w/w
Total degradation ([2]; 6 h, 0.3 mg/mL): 0.2 % w/w
Total degradation ([2]; 6 h, 2 mg/mL): 0.2 % w/w
Total degradation ([2]; 8 h, 0.3 mg/mL): 0.2 % w/w
Total degradation ([2]; 8 h, 2 mg/mL): 0.2 % w/w
Total degradation ([2]; 24 h, 0.3 mg/mL): 0.2 % w/w
Total degradation ([2]; 24 h, 2 mg/mL): 0.2 % w/w
Total degradation ([2]; 48 h, 0.3 mg/mL): 0.2 % w/w
Total degradation ([2]; 48 h, 2 mg/mL): 0.2 % w/w
AUC(0-t) (in vivo [3]): 7.26 µM·h
AUC(0-t) (in vivo [4]; 0.168 mg/kg): 0.023 ± 0.008 µM·h
Cmax (in vivo [4]; 0.168 mg/kg): 39 ± 14 nM
Tmax (in vivo [4]; 0.168 mg/kg): 0.52 h
AUC(0-t) (in vivo [4]; 0.536 mg/kg): 0.146 ± 0.045 µM·h
Cmax (in vivo [4]; 0.536 mg/kg): 101 ± 19 nM
Tmax (in vivo [4]; 0.536 mg/kg): 1.53 h
